{"source": "patent US10806147B2", "about": "“Treatment method for a hydrocarbon-containing system using a biocide” (RHODIA OPERATIONS, priority 2011, dated 2020)", "system": "sulphate-reducing prokaryotes (SRP)", "method": "The bioreactor used was constructed from titanium; this construction eliminated the risk of any production of iron sulphides through corrosion, which in turn would react with injected THPS. […] The column was packed with low-iron sand (Fisher, UK) with a glass fibre plug at the base to prevent the draining of sand during filling. The column fittings (injection and production pipework) were constructed from 316 stainless steel (Swagelok).\nThe column was maintained at 1000 psig (70 barg) and 24° C.±1° C. The pressure was held between the pump head and the proportional release valve. The use of 1-way valves in the injection head permitted disconnection and maintenance of the pump without depressurisation of the column.\nThe pump used was a high-pressure liquid chromatography pump (PerkinElmer Series 100). The pump was operated in a continuous fashion at an injection rate of 1 mL/min, injecting into the head of the bioreactor.\nInjection fluid was prepared daily on workdays, with three days of fluid prepared on Friday to cover the weekend. During the week, a single pump was used on a continuous basis. Over the weekend, three pumps were used, cycling in three hour injection windows. The injection fluid was stored in a polyethylene terephthalate (PET) nitrogen-pressurised vessel at 2° C.±1° C.\nThe North Sea seawater used throughout the study was collected from Bridlington, Yorkshire on a quarterly basis. It was de-oxygenated through nitrogen sparging over a 48 hour period. Metabolisable carbon was added to the seawater in the form of volatile fatty acids (VFA) in the ratio of 100 acetate:10 propionate:1 butyrate by weight. Acetate and propionate were added as salt in order to avoid acidification of the injection fluid, whilst butyrate was added as the acid. The pH of the injection fluid was between 7.5 and 8 before the addition of THPS. The VFA totalled 111 mg/L, which, if converted entirely to sulphide (i.e. none used for biomass growth), should permit the production of 67 mg/L H2S.\nThe bioreactor was inoculated using a mixed consortia of prokaryotes obtained from North Sea seawater and North Sea oil reservoirs. Rawwater Engineering Company Limited (RECL) maintained a mixed consortia of sulphate-reducing prokaryotes (SRP) in bioreactors under the experimental conditions required for the project (24° C., 1000 psig). These bioreactors were used solely for inoculation purposes. Both bioreactors increased the chances of successfully inoculating new bioreactors, by limiting the changes in environmental conditions the microbes were subjected to and thus limiting stress. The column was inoculated with microbes, shut-in for a fortnight and operated under batch flow conditions (140 mL fluid per day in equally spaced thirty-minute injection windows) until SRP were known to be established through the production of hydrogen sulphide.\nEffluent samples were collected on a daily basis onto zinc acetate. This reacted with the volatile hydrogen sulphide to form stable zinc sulphide precipitate, which permitted analysis at a later time. All samples were analysed within six hours of collection. The samples were analysed through the standard methylene blue colourimetric procedure, which was calibrated monthly against the iodometric sulphide method.\nThree trials were conducted: • Trial 1—Starting with a dose of 30 mg/L THPS, the dose concentration of THPS was reduced in 10 mg/L steps until sulphide recovery was observed. […] This indicated the minimum starting concentration of THPS required to convert the SRP from normal activity to biostasis.", "note": "Read-outs that look alike come from different tables or passages of the source.", "data": [{"substance": "Tetrakis(hydroxymethyl)phosphonium sulphate [THPS]", "values": [{"measurement": "period of continued low hydrogen sulphide after removal of THPS, before gradual rise", "setting": "Trial 1, after 86 days total biocide injection, THPS removed entirely", "value": "25 to 27", "unit": "days"}, {"measurement": "increase in sulphide during dosing", "setting": "Trial 1, dose reduced to 10 mg/L, 14 days", "value": "no significant increase in sulphide was recorded"}, {"measurement": "biological activity and sulphide production on introduction of THPS", "setting": "Trial 1, pre-soured bioreactor, 30 mg/L active THPS (60 mg/L Tolcide PS50A, incl. penetrant), continuous, 24 °C, 1000 psig", "value": "collapse in biological activity and sulphide production to sub-mg/L concentrations"}, {"measurement": "biological activity and effluent sulphide on introduction of THPS", "setting": "Trial 2, 30 mg/L THPS plus penetrant, continuous", "value": "immediate collapse of biological activity and effluent sulphide"}, {"measurement": "effluent sulphide during reduced dosing", "setting": "Trial 2, 20 and 10 mg/L THPS, biocide injected 91 days in total", "value": "remained suppressed"}, {"measurement": "biostasis of the column", "setting": "Trial 3, 5 mg/L THPS plus penetrant, slow inhibited increase in effluent sulphide", "value": "insufficient to keep the entire column under biostasis"}, {"measurement": "effluent sulphide", "setting": "Trial 3, dose increased to 20 mg/L THPS", "value": "the effluent sulphide collapsed and remained low"}, {"measurement": "effluent sulphide", "setting": "Trial 3, dose increased via 10 mg/L to 15 mg/L THPS", "value": "appeared to stabilise the effluent sulphide"}, {"measurement": "growth of the SRP population", "setting": "Trial 3, sour column, 5 mg/L THPS plus penetrant, continuous", "value": "rapidly halted the growth of the SRP population"}]}]}
